Experimental data taken from ChEMBL document CHEMBL3856229, “Hybrid Antibiotic Overcomes Resistance in P. aeruginosa by Enhancing Outer Membrane Penetration and Reducing Efflux” (J Med Chem, 2016).
Values after ≈ are worked out from the molar mass of the structure shown.

Assays:
Type in all cases: functional
Escherichia coli [1] = test: Antibacterial activity against amikacin-resistant Escherichia coli isolate CAN-ICU 63074 after 24 hrs by microtitre broth dilution method; conditions: isolate CAN-ICU 63074, 24 h
Pseudomonas aeruginosa [2] = test: Antibacterial activity against multidrug-resistant/tobramycin-susceptible Pseudomonas aeruginosa isolate 86052
Staphylococcus aureus [3] = test: Antibacterial activity against Staphylococcus aureus ATCC 29213 after 24 hrs by microtitre broth dilution method; conditions: ATCC 29213, 24 h
Staphylococcus aureus [4] = test: Antibacterial activity against methicillin-resistant Staphylococcus aureus ATCC 33592 after 24 hrs by microtitre broth dilution method; conditions: ATCC 33592, 24 h
[5] = system: Staphylococcus epidermidis; test: Antibacterial activity against methicillin-susceptible Staphylococcus epidermidis isolate CANWARD-2008 81388 after 24 hrs by microtitre broth dilution method; conditions: isolate CANWARD-2008 81388, 24 h
[6] = system: Staphylococcus epidermidis; test: Antibacterial activity against methicillin-resistant Staphylococcus epidermidis isolate CAN-ICU 61589 after 24 hrs by microtitre broth dilution method; conditions: isolate CAN-ICU 61589, 24 h
Enterococcus faecalis = test: Antibacterial activity against Enterococcus faecalis ATCC 29212 after 24 hrs by microtitre broth dilution method; conditions: ATCC 29212, 24 h
Enterococcus faecium = test: Antibacterial activity against Enterococcus faecium ATCC 27270 after 24 hrs by microtitre broth dilution method; conditions: ATCC 27270, 24 h
Streptococcus pneumoniae = test: Antibacterial activity against Streptococcus pneumoniae ATCC 49619 after 24 hrs by microtitre broth dilution method; conditions: ATCC 49619, 24 h
Escherichia coli [7] = test: Antibacterial activity against gentamicin-resistant Escherichia coli isolate CAN-ICU 61714 after 24 hrs by microtitre broth dilution method; conditions: isolate CAN-ICU 61714, 24 h
Escherichia coli [8] = test: Antibacterial activity against gentamicin/tobramycin/ciprofloxacin-resistant Escherichia coli isolate CANWARD-2011 97615 harboring AAC3-2A after 24 hrs by microtitre broth dilution method; conditions: isolate CANWARD-2011 97615, 24 h
Pseudomonas aeruginosa [9] = test: Antibacterial activity against Pseudomonas aeruginosa ATCC 27853 after 24 hrs by microtitre broth dilution method; conditions: ATCC 27853, 24 h
Pseudomonas aeruginosa [10] = test: Antibacterial activity against gentamicin/tobramycin-resistant Pseudomonas aeruginosa isolate CANWARD-2011 96846 after 24 hrs by microtitre broth dilution method; conditions: isolate CANWARD-2011 96846, 24 h
[11] = system: Stenotrophomonas maltophilia; test: Antibacterial activity against Stenotrophomonas maltophilia isolate CAN-ICU 62584 after 24 hrs by microtitre broth dilution method; conditions: isolate CAN-ICU 62584, 24 h
Acinetobacter baumannii = test: Antibacterial activity against Acinetobacter baumannii isolate CAN-ICU 63169 after 24 hrs by microtitre broth dilution method; conditions: isolate CAN-ICU 63169, 24 h
Klebsiella pneumoniae = test: Antibacterial activity against Klebsiella pneumoniae ATCC 13883 after 24 hrs by microtitre broth dilution method; conditions: ATCC 13883, 24 h
Pseudomonas aeruginosa [12] = test: Antibacterial activity against multidrug/extremely drug-resistant/colistin-susceptible Pseudomonas aeruginosa isolate 100036
Pseudomonas aeruginosa [13] = test: Antibacterial activity against multidrug/extremely drug-resistant/colistin-susceptible Pseudomonas aeruginosa isolate 101885
Pseudomonas aeruginosa [14] = test: Antibacterial activity against multidrug/extremely drug-resistant/colistin-susceptible Pseudomonas aeruginosa isolate 259-96918
Pseudomonas aeruginosa [15] = test: Antibacterial activity against multidrug/extremely drug-resistant/colistin-susceptible Pseudomonas aeruginosa isolate 260-97103
Pseudomonas aeruginosa [16] = test: Antibacterial activity against multidrug/extremely drug-resistant/colistin-susceptible Pseudomonas aeruginosa isolate 262-101856
Pseudomonas aeruginosa [17] = test: Antibacterial activity against multidrug/extremely drug-resistant/colistin-susceptible Pseudomonas aeruginosa isolate 264-104354
Pseudomonas aeruginosa [18] = test: Antibacterial activity against pandrug-resistant Pseudomonas aeruginosa isolate 91433
Pseudomonas aeruginosa [19] = test: Antibacterial activity against Pseudomonas aeruginosa PAO1
Pseudomonas aeruginosa [20] = test: Antibacterial activity against multidrug-resistant/tobramycin-susceptible Pseudomonas aeruginosa isolate 86053
Pseudomonas aeruginosa [21] = test: Antibacterial activity against multidrug-resistant/tobramycin-susceptible Pseudomonas aeruginosa isolate 86067
Pseudomonas aeruginosa [22] = test: Antibacterial activity against multidrug-resistant/tobramycin-susceptible Pseudomonas aeruginosa isolate 86079
Pseudomonas aeruginosa [23] = test: Antibacterial activity against multidrug-resistant/tobramycin-susceptible Pseudomonas aeruginosa isolate 83182
Escherichia coli [24] = test: Antibacterial activity against Escherichia coli ATCC 25922 after 24 hrs by microtitre broth dilution method; conditions: ATCC 25922, 24 h
Pseudomonas aeruginosa [25] = test: Antibacterial activity against pandrug-resistant Pseudomonas aeruginosa isolate 101243
Pseudomonas aeruginosa [26] = test: Antibacterial activity against multidrug-resistant/tobramycin-susceptible Pseudomonas aeruginosa isolate 86141
Pseudomonas aeruginosa [27] = test: Antibacterial activity against multidrug-resistant/tobramycin-susceptible Pseudomonas aeruginosa isolate 92014
Pseudomonas aeruginosa [28] = test: Antibacterial activity against multidrug-resistant/tobramycin-susceptible Pseudomonas aeruginosa isolate 79199
Pseudomonas aeruginosa [29] = test: Antibacterial activity against multidrug-resistant/tobramycin-susceptible Pseudomonas aeruginosa isolate 80621
Pseudomonas aeruginosa [30] = test: Antibacterial activity against multidrug-resistant/tobramycin-susceptible Pseudomonas aeruginosa isolate 84745
Pseudomonas aeruginosa [31] = test: Antibacterial activity against multidrug-resistant/tobramycin-susceptible Pseudomonas aeruginosa isolate 85322
Pseudomonas aeruginosa [32] = test: Antibacterial activity against multidrug-resistant/tobramycin-susceptible Pseudomonas aeruginosa isolate 108590

Compound | MIC (Pseudomonas aeruginosa [2]) [µg/mL] | MIC (Pseudomonas aeruginosa [12]) [µg/mL] | MIC (Pseudomonas aeruginosa [13]) [µg/mL] | MIC (Pseudomonas aeruginosa [14]) [µg/mL] | MIC (Pseudomonas aeruginosa [15]) [µg/mL] | MIC (Pseudomonas aeruginosa [16]) [µg/mL] | MIC (Pseudomonas aeruginosa [17]) [µg/mL] | MIC (Pseudomonas aeruginosa [18]) [µg/mL] | MIC (Pseudomonas aeruginosa [20]) [µg/mL] | MIC (Pseudomonas aeruginosa [21]) [µg/mL] | MIC (Pseudomonas aeruginosa [22]) [µg/mL] | MIC (Pseudomonas aeruginosa [23]) [µg/mL] | MIC (Pseudomonas aeruginosa [25]) [µg/mL] | MIC (Pseudomonas aeruginosa [26]) [µg/mL] | MIC (Pseudomonas aeruginosa [27]) [µg/mL] | MIC (Pseudomonas aeruginosa [28]) [µg/mL] | MIC (Pseudomonas aeruginosa [29]) [µg/mL] | MIC (Pseudomonas aeruginosa [30]) [µg/mL] | MIC (Pseudomonas aeruginosa [31]) [µg/mL] | MIC (Pseudomonas aeruginosa [32]) [µg/mL] | further results
NCC[C@H](O)C(=O)N[C@@H]1C[C@H](N)[C@@H](O[C@H]2O[C@H](CN)[C@@H](O)[C@H](O)[C@H]2O)[C@H](O)[C@H]1O[C@H]1O[C@H](CO)[C@@H](O)[C@H](N)[C@H]1O [AMIKACIN] | – | – | – | – | – | – | – | – | – | – | – | – | – | – | – | – | – | – | – | – | MIC (Escherichia coli [1]): 32 µg/mL (≈ 54.6 µM)
O=C(O)c1cn(C2CC2)c2cc(N3CCNCC3)c(F)cc2c1=O [CIPROFLOXACIN] | > 16 | 64 (≈ 193 µM) | 32 (≈ 96.6 µM) | 256 (≈ 773 µM) | 16 to 64 (≈ 48.3 to 193 µM) | 16 to 32 (≈ 48.3 to 96.6 µM) | 16 to 32 (≈ 48.3 to 96.6 µM) | 4 to 8 (≈ 12.1 to 24.1 µM) | > 16 | 4 (≈ 12.1 µM) | > 16 | 4 (≈ 12.1 µM) | – | – | – | – | – | – | – | – | MIC (Staphylococcus aureus [3]): ≤ 0.25 µg/mL; MIC (Staphylococcus aureus [4]): ≤ 0.25 µg/mL; MIC [5]: ≤ 0.25 µg/mL; MIC [6]: 128 µg/mL (≈ 386 µM); MIC (Enterococcus faecalis): 1 µg/mL (≈ 3.02 µM); MIC (Enterococcus faecium): 8 µg/mL (≈ 24.1 µM); MIC (Streptococcus pneumoniae): 1 µg/mL (≈ 3.02 µM); MIC (Escherichia coli [7]): ≤ 0.25 µg/mL; MIC (Escherichia coli [1]): ≤ 0.25 µg/mL; MIC (Escherichia coli [8]): 256 µg/mL (≈ 773 µM); MIC (Pseudomonas aeruginosa [9]): 1 µg/mL (≈ 3.02 µM); MIC (Pseudomonas aeruginosa [10]): 4 µg/mL (≈ 12.1 µM); MIC [11]: 32 µg/mL (≈ 96.6 µM); MIC (Acinetobacter baumannii): 2 µg/mL (≈ 6.04 µM); MIC (Klebsiella pneumoniae): ≤ 0.25 µg/mL; MIC (Pseudomonas aeruginosa [19]): < 0.2 µg/mL; MIC (Escherichia coli [24]): ≤ 0.25 µg/mL
CO/N=C(\C(=O)N[C@@H]1C(=O)N2C(C(=O)[O-])=C(C[N+]3(C)CCCC3)CS[C@H]12)c1csc(N)n1 [CEFEPIME] | 16 (≈ 33.3 µM) | 4 (≈ 8.32 µM) | 8 (≈ 16.6 µM) | > 64 | 16 (≈ 33.3 µM) | 32 (≈ 66.6 µM) | 32 (≈ 66.6 µM) | 16 (≈ 33.3 µM) | 64 (≈ 133 µM) | 64 (≈ 133 µM) | 32 (≈ 66.6 µM) | 16 (≈ 33.3 µM) | 64 (≈ 133 µM) | 16 (≈ 33.3 µM) | 16 (≈ 33.3 µM) | 32 (≈ 66.6 µM) | 8 (≈ 16.6 µM) | 16 (≈ 33.3 µM) | 16 (≈ 33.3 µM) | – | –
Cc1nnc(SCC2=C(C(=O)O)N3C(=O)[C@@H](NC(=O)Cn4cnnn4)[C@H]3SC2)s1 [CEFAZOLIN] | – | – | – | – | – | – | – | – | – | – | – | – | – | – | – | – | – | – | – | – | MIC [6]: > 32 µg/mL
GENTAMICIN | 4 | > 32 | > 0.5 | > 32 | > 32 | > 32 | > 32 | 32 | 4 | > 32 | 8 | 4 | > 32 | 8 | 4 | 4 | 16 | 8 | 4 | 16 | –
C[C@H]1c2cccc(O)c2C(=O)C2=C(O)[C@]3(O)C(=O)C(C(N)=O)=C(O)[C@@H](N(C)C)[C@@H]3[C@@H](O)[C@@H]21.O [DOXYCYCLINE] | – | > 32 | > 32 | > 32 | 32 | > 32 | > 32 | 32 | – | – | – | – | 8 | – | – | – | – | – | – | – | –
C[C@@H](O)[C@H]1C(=O)N2C(C(=O)O)=C(S[C@@H]3CN[C@H](C(=O)N(C)C)C3)[C@H](C)[C@H]12 [MEROPENEM] | 8 (≈ 20.9 µM) | 4 (≈ 10.4 µM) | 1 (≈ 2.61 µM) | > 32 | 16 (≈ 41.7 µM) | 32 (≈ 83.4 µM) | > 32 | 8 (≈ 20.9 µM) | > 32 | > 32 | 32 (≈ 83.4 µM) | 16 (≈ 41.7 µM) | 16 (≈ 41.7 µM) | 16 (≈ 41.7 µM) | 8 (≈ 20.9 µM) | 16 (≈ 41.7 µM) | 16 (≈ 41.7 µM) | 16 (≈ 41.7 µM) | 16 (≈ 41.7 µM) | 8 (≈ 20.9 µM) | –
C[C@@H](O)[C@H]1C(=O)N2C(C(=O)O)=C(S[C@@H]3CN[C@H](CNS(N)(=O)=O)C3)[C@H](C)[C@H]12 [DORIPENEM] | – | 5 (≈ 11.9 µM) | 0.5 (≈ 1.19 µM) | > 32 | 32 (≈ 76.1 µM) | 8 (≈ 19 µM) | 16 (≈ 38 µM) | 8 (≈ 19 µM) | – | – | – | – | 16 (≈ 38 µM) | – | – | – | – | – | – | – | –
CC(C)(O/N=C(\C(=O)N[C@@H]1C(=O)N2C(C(=O)[O-])=C(C[n+]3ccccc3)CS[C@H]12)c1csc(N)n1)C(=O)O [CEFTAZIDIME] | > 32 | – | – | – | – | – | – | – | > 32 | > 32 | > 32 | > 32 | – | > 32 | > 32 | 32 (≈ 58.5 µM) | > 32 | > 32 | > 32 | 32 (≈ 58.5 µM) | –
C[C@@H](O)[C@H]1C(=O)N2C(C(=O)O)=C(SCCNC=N)C[C@H]12 [IMIPENEM ANHYDROUS] | 32 (≈ 107 µM) | – | – | – | – | – | – | – | 16 (≈ 53.4 µM) | > 32 | 16 (≈ 53.4 µM) | 16 (≈ 53.4 µM) | – | 16 (≈ 53.4 µM) | 8 (≈ 26.7 µM) | 4 (≈ 13.4 µM) | 32 (≈ 107 µM) | 16 (≈ 53.4 µM) | 32 (≈ 107 µM) | 32 (≈ 107 µM) | –
